Experimental data published in US20170027893A1, “THIOSEMICARBAZONES INHIBITORS OF LYSOPHOSPHATIDIC ACID ACYLTRANSFERASE AND USES THEREOF” (H. LEE CANCER CENTER AND RESEARCH INSTITUTE, INC., priority 2014, published 2017).
“And” between values parts separate entries of the source, which are not always exact repeats. Equal values may be shown once. Read-outs that look alike come from different tables or passages of the source.

Legend:
LPAAT-β [1] = target: T1, LPAAT-β (Homo sapiens, UniProt O15120); assay: secondary thin layer chromatography (TLC) assay measuring fluorescent PA; format: biochemical; set-up: The assay utilizes full-length, recombinant, baculovirus-produced LPAAT-β; made in house
T1 sequence (O15120 24-278): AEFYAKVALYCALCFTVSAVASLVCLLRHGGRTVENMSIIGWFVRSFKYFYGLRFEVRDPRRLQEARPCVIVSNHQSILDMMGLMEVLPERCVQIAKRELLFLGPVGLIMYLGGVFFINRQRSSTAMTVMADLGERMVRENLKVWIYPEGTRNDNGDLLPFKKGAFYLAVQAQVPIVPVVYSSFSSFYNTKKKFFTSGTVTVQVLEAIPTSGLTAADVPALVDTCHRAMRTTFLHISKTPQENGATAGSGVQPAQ

[2] = system: MiaPaCa2 human pancreatic cancer cells; assay: inhibition of proliferation, Alamar blue, 72 h; format: cell-based
Description: The ability of selected compounds from the libraries 6, 15 and 19 to inhibit the growth of MiaPaCa2 human pancreatic cancer cells was investigated. Human pancreatic carcinoma (MiaPaCa2) cells were plated at a low confluency into 96-well tissue culture-treated plates. After allowing cells to attach and grow overnight at 37 degrees in a 5% CO2 incubator, growth medium was replaced with fresh medium (100 μl/well) containing compounds in a range from 0.1-100 μM. All treatments were made from 500× stock solutions in DMSO, and the control wells received an equivalent amount of DMSO in medium. After 72 hours of growth in the presence of the compounds, Alamar blue was added to the wells according to the manufacturer's instructions (Life Technologies, Grand Island, N.Y.) and cells were incubated in its presence for 2-3 hours. Fluorescence readings were performed using a Biotek Synergy II plate reader with […] wavelengths of 530/590 nm. […] Calculated IC50s are representative of at least three independent experiments.

LPAAT-β [3] = target: T1, LPAAT-β; assay: DTNB (Ellman's reagent) 96-well plate screening assay of LPAAT-β enzymatic activity; format: biochemical; set-up: The assay utilizes full-length, recombinant, baculovirus-produced LPAAT-β; made in house
Description: Screening with a modified screening assay in 96-well plate format for LPAAT-β enzymatic activity was performed as reported by Aguado and Campbell (Aguado et al., Characterization of a human lysophosphatidic acid acyltransferase that is encoded by a gene located in the class III region of the human major histocompatibility complex. J. Biol. Chem. 1998, 273, 4096-105).
The assay utilizes full-length, recombinant, baculovirus-produced LPAAT-β, which catalyzes the production of dioleoyl-[…] from the enzymatic substrates oleoyl-lysophosphatidic acid (LPA) and oleoyl-coenzyme A (Scheme 2). The ability of the compound to inhibit the LPAAT-β activity was assayed by the colorimetric measurement of the reaction of the free thiol group of the released coenzyme A with Ellman's reagent [5,5′-dithiobis-(2-nitrobenzoic acid) or DTNB] (Riener et al., Quick measurement of protein sulfhydryls with Ellman's reagent and with 4,4′-dithiodipyridine. Anal. Bioanal. Chem. 2002, 373, 266-76). […] A hit identified from the Life Chemicals library 6a (IC50 100 nM) was selected for further investigation.

[4] = read-out: IC50 (μM) (DTNB assay) (converted)
[5] = Table 4, read-out: IC50 (μm) (DTNB assay) (converted)

Row | SMILES | IC50 (LPAAT-β [1]) [µM] | IC50 (LPAAT-β [3]; [4]) | further results
1 | C=CCc1cccc(/C=N/NC(N)=S)c1O [Compound 6a] | 33 ± 13 | 0.86 ± 0.52 µM | IC50 ([2]; Homo sapiens, MIA PaCa-2): 38 ± 17 µM; IC50 (LPAAT-β [3]; hit from the Life Chemicals library, before resynthesis, read-out: IC50 of the hit in the library screen): 0.1 µM
2 | NC(=S)NN=Cc1ccccc1O [Compound 6b] | > 100 | > 100 µM | LPAAT-β inhibitory activity in words (TLC assay) (LPAAT-β [1]): inactive; LPAAT-β inhibitory activity in words (assay not given) (LPAAT-β [3]): inactive
3 | NC(=S)NN=Cc1cccc(O)c1O [Compound 6c] | > 10 | > 100 µM | LPAAT-β inhibitory activity in words (assay not given) (LPAAT-β [3]): inactive
4 | CCOc1cccc(C=NNC(N)=S)c1O [Compound 6d] | > 10 | > 100 µM | LPAAT-β inhibitory activity in words (assay not given) (LPAAT-β [3]): inactive
5 | NC(=S)NN=Cc1cccc(F)c1O [Compound 6e] | > 10 | 4.3 µM | –
6 | NC(=S)NN=Cc1cccc(Cl)c1O [Compound 6f] | > 10 | 2 µM | –
7 | NC(=S)NN=Cc1cccc(Br)c1O [Compound 6g] | > 10 | 1.5 µM | –
8 | Cc1cccc(C=NNC(N)=S)c1O [Compound 6h] | > 10 | 7.5 µM | –
9 | NC(=S)NN=Cc1cccc(C(F)(F)F)c1O [Compound 6i] | > 10 | 7 µM | –
10 | CCc1cccc(C=NNC(N)=S)c1O [Compound 6j] | 48 ± 15 | 0.85 ± 0.56 µM | IC50 ([2]; Homo sapiens, MIA PaCa-2): 36 ± 20 µM
11 | CCCc1cccc(C=NNC(N)=S)c1O [Compound 6k] | 19 ± 11 | – | –
12 | CC(C)c1cccc(C=NNC(N)=S)c1O [Compound 6l] | 30 | 13 ± 8.4 µM | –
13 | NC(=S)NN=Cc1cccc(-c2ccccc2)c1O [Compound 6m] | > 10 | 40 ± 10 µM | –
14 | NC(=S)NN=Cc1cccc(C2CCCCC2)c1O [Compound 6n] | > 10 | > 100 µM | –
15 | CCCCc1cccc(C=NNC(N)=S)c1O [Compound 6o] | > 10 | – | –
16 | CCCCCc1cccc(C=NNC(N)=S)c1O [Compound 6p] | > 10 | > 100 µM | –
17 | CCCCCCCc1cccc(C=NNC(N)=S)c1O [Compound 6q] | 9.7 | > 100 µM | –
18 | NC(=S)NN=Cc1cccc(CCCc2ccccc2)c1O [Compound 6r] | – | > 100 µM | –
19 | NC(=S)N/N=C/c1ccc2ccccc2c1O [Compound 6s] | – | 6.4 ± 4.7 µM | –
20 | NC(=S)N/N=C/c1cccc2c1oc1ccccc12 [Compound 6t] | – | – | LPAAT-β inhibitory activity in words (assay not given) (LPAAT-β [3]): inactive
21 | C=CCc1cccc(/C=N/NC(N)=O)c1O [Compound 6w] | – | – | LPAAT-β inhibitory activity in words (assay not given) (LPAAT-β [3]): inactive
22 | C=CCc1cccc(C=NNC(=S)NC)c1O [Compound 10a] | > 10 | 3.9 ± 2.3 µM | –
23 | CCCc1cccc(C=NNC(=S)NC)c1O [Compound 10b] | > 10 | 14 ± 12 µM | –
24 | CCCc1cccc(C=NNC(=S)NC(=O)c2ccccc2)c1O [Compound 10c] | – | > 100 µM | LPAAT-β inhibitory activity in words (assay not given) (LPAAT-β [3]): inactive
25 | C=CCc1cccc(C=NN=c2scc(-c3ccccc3)n2C)c1O [Compound 11a] | > 10 | > 100 µM | LPAAT-β inhibitory activity in words (assay not given) (LPAAT-β [3]): inactive

Row | SMILES | IC50 (LPAAT-β [1]) [µM] | IC50 (LPAAT-β [3]; [4]) | further results
26 | CCCc1cccc(C=NN=c2scc(-c3ccccc3)n2C)c1O [Compound 11b] | > 10 | > 100 µM | LPAAT-β inhibitory activity in words (assay not given) (LPAAT-β [3]): inactive
27 | C=CCc1cccc(C=NN=c2[nH]c(-c3ccccc3)cs2)c1O [Compound 11c] | > 10 | > 100 µM | –
28 | CCCc1cccc(C(C)=NNC(N)=S)c1O [Compound 15a] | 35 ± 18 | 0.65 ± 0.42 µM | IC50 ([2]; Homo sapiens, MIA PaCa-2): 23 ± 15 µM
29 | C=CCc1cccc(C(C)=NNC(N)=S)c1O [Compound 15b] | > 10 | 0.52 ± 0.25 µM | –
30 | CCc1cccc(C(C)=NNC(N)=S)c1O [Compound 15c] | > 10 | 0.73 ± 0.76 µM | –
31 | C=CCc1cc(Cl)cc(C(C)=NNC(N)=S)c1O [Compound 15d] | 32 | 0.2 µM | –
32 | CC(=NNC(N)=S)c1cc(Cl)ccc1O [Compound 15e] | > 10 | 2.8 µM | –
33 | CC(=NNC(N)=S)c1cc(Cl)cc(Cl)c1O [Compound 15f] | > 10 | 0.27 µM | –
34 | C=CCc1cc(Cl)cc(C(C)=NNC(N)=S)c1O [Compound 19a] | 3.3 ± 1.2 | 0.17 ± 0.09 µM | IC50 (LPAAT-β [1]; Table 4): 3.3 ± 1.2 µM; IC50 [2]: 14 ± 5.5 µM; IC50 (LPAAT-β [3]; [5]): 0.17 ± 0.09 µM
35 | C=CCc1cc(F)cc(C(C)=NNC(N)=S)c1O [Compound 19b] | – | – | IC50 (LPAAT-β [1]; Table 4): 24 µM; IC50 (LPAAT-β [3]; [5]): 0.24 µM
36 | C=CCc1cc(Br)cc(C(C)=NNC(N)=S)c1O [Compound 19c] | – | – | IC50 (LPAAT-β [1]; Table 4): 4.1 µM; IC50 (LPAAT-β [3]; [5]): 0.1 µM
37 | C=CCc1cc(C#N)cc(C(C)=NNC(N)=S)c1O [Compound 19d] | – | – | IC50 (LPAAT-β [1]; Table 4): > 10 µM; IC50 (LPAAT-β [3]; [5]): 0.46 µM
38 | C=CCc1cc(CC)cc(C(C)=NNC(N)=S)c1O [Compound 19e] | – | – | IC50 (LPAAT-β [1]; Table 4): 1.9 µM; IC50 (LPAAT-β [3]; [5]): 0.2 µM
39 | C=CCc1cc(CCC)cc(C(C)=NNC(N)=S)c1O [Compound 19f] | – | – | IC50 (LPAAT-β [1]; Table 4): 2.4 µM; IC50 (LPAAT-β [3]; [5]): 0.27 µM
40 | C=CCc1cc(C(C)C)cc(C(C)=NNC(N)=S)c1O [Compound 19g] | – | – | IC50 (LPAAT-β [1]; Table 4): 1.4 µM; IC50 (LPAAT-β [3]; [5]): 0.16 µM
41 | C=CCc1cc(CCCC)cc(C(C)=NNC(N)=S)c1O [Compound 19h] | 1.4 ± 1.1 | 0.16 ± 0.07 µM | IC50 (LPAAT-β [1]; Table 4): 1.4 µM; IC50 [2]: 12 ± 3.3 µM; IC50 (LPAAT-β [3]; [5]): 0.16 µM
42 | C=CCc1cc(C(C)(C)C)cc(C(C)=NNC(N)=S)c1O [Compound 19i] | – | – | IC50 (LPAAT-β [1]; Table 4): 1.3 µM; IC50 (LPAAT-β [3]; [5]): 0.31 µM
43 | C=CCc1cc(CCCCC)cc(C(C)=NNC(N)=S)c1O [Compound 19j] | – | – | IC50 (LPAAT-β [1]; Table 4): 3.2 µM; IC50 (LPAAT-β [3]; [5]): 0.19 µM
44 | C=CCc1cc(CCCCCC)cc(C(C)=NNC(N)=S)c1O [Compound 19k] | 3.2 ± 1.6 | 17 ± 7.3 µM | IC50 (LPAAT-β [1]; Table 4): 5.2 µM; IC50 (LPAAT-β [3]; [5]): 0.24 µM
45 | C=CCc1cc(C(C)=O)cc(C(C)=NNC(N)=S)c1O [Compound 19l] | > 10 | 2.67 ± 0.25 µM | –
46 | C=CCc1cc(CC(=O)OC)cc(C(C)=NNC(N)=S)c1O [Compound 19m] | – | – | IC50 (LPAAT-β [3]; [5]): 1.15 µM
47 | C=CCc1cc(-c2ccccc2)cc(C(C)=NNC(N)=S)c1O [Compound 19n] | 5.7 ± 2.5 | 1.15 µM and 0.19 µM | –
48 | C=CCc1cc(-c2ccc(F)cc2)cc(C(C)=NNC(N)=S)c1O [Compound 19q] | – | – | IC50 (LPAAT-β [1]; Table 4): 5.1 ± 3 µM; IC50 (LPAAT-β [3]; [5]): 0.29 ± 0.06 µM
49 | C=CCc1cc(-c2ccc(C#N)cc2)cc(C(C)=NNC(N)=S)c1O [Compound 19u] | – | 0.36 ± 0.1 µM | IC50 (LPAAT-β [1]; Table 4): 1 ± 0.9 µM; IC50 (LPAAT-β [3]; [5]): 0.4 ± 0.19 µM
50 | NNC(N)=S [Thiosemicarbazide] | – | – | LPAAT-β inhibitory activity in words (assay not given) (LPAAT-β [3]): not by itself active
